From publication PMC5031999, “Structure and catalytic mechanism of monodehydroascorbate reductase, MDHAR, from Oryza sativa L. japonica” (Scientific Reports, 2016)

Key:
Assay type in all cases: binding
[1] = target: T1, OsMDHAR (Oryza sativa, UniProt Q652L6, E196A); assay: X-ray crystal structure, […] Å; settings: crystal soaked with 50 mM NADPH until colourless; FAD bound
T1 construct: gene MDAR3; amplified from rice cDNA; monomer by size exclusion

[2] = target: T2, OsMDHAR (Oryza sativa, UniProt Q652L6); assay: X-ray crystal structure, […] Å; settings: co-purified FAD, one per monomer; NAD-free crystal
T2 construct: gene MDAR3; amplified from rice cDNA; monomer by size exclusion

[3] = target: T3, OsMDHAR (Oryza sativa, UniProt Q652L6, Y349F); assay: X-ray crystal structure, […] Å; settings: crystal soaked with 10 mM NADH, then ISD; quaternary complex with FAD and ISD
T3 construct: gene MDAR3; amplified from rice cDNA; monomer by size exclusion

[4] = target: T1, OsMDHAR; assay: isothermal titration calorimetry; settings: text names both NADH and NAD for the titrated ligand
[5] = target: T2, OsMDHAR; assay: isothermal titration calorimetry; settings: text names both NADH and NAD for the titrated ligand

T1 sequence (Q652L6 whole entry E196A): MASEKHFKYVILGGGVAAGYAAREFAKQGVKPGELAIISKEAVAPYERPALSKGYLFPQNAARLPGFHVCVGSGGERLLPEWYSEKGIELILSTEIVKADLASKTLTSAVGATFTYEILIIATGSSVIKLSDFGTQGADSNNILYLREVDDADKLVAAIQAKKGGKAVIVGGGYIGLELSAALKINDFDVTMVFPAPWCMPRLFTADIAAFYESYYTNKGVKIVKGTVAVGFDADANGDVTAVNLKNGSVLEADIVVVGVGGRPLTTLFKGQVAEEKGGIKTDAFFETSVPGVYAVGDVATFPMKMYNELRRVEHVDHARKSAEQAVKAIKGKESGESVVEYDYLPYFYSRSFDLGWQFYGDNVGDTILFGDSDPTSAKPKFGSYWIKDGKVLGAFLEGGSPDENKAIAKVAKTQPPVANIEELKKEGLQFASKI
T2 sequence (Q652L6 whole entry): as the sequence (Q652L6 whole entry E196A) above, with A196E counted along it
T3 sequence (Q652L6 whole entry Y349F): as the sequence (Q652L6 whole entry E196A) above, with A196E, Y349F counted along it

Compound: NC(=O)c1ccc[n+]([C@@H]2O[C@H](COP(=O)(O)OP(=O)(O)OC[C@H]3O[C@@H](n4cnc5c(N)ncnc54)[C@H](OP(=O)(O)O)[C@@H]3O)[C@@H](O)[C@H]2O)c1 [NADP]
- X-ray crystal structure, 1.8 Å [1]: the structure of the E196A mutant-NADP complex revealed

Compound: Cc1cc2nc3c(=O)[nH]c(=O)nc-3n(C[C@H](O)[C@H](O)[C@H](O)COP(=O)(O)OP(=O)(O)OC[C@H]3O[C@@H](n4cnc5c(N)ncnc54)[C@H](O)[C@@H]3O)c2cc1C [FAD]
- X-ray crystal structure, 1.7 Å [2]: All four structures contain one molecule of FAD per monomer

Compound: NC(=O)c1ccc[n+]([C@@H]2O[C@H](COP(=O)(O)OP(=O)(O)OC[C@H]3O[C@@H](n4cnc5c(N)ncnc54)[C@H](O)[C@@H]3O)[C@@H](O)[C@H]2O)c1 [NAD]
- X-ray crystal structure, 1.9 Å [3]: We also determined quaternary complex structures with FAD, NAD, and AsA or ISD

Compound: NC(=O)C1=CN([C@@H]2O[C@H](COP(=O)(O)OP(=O)(O)OC[C@H]3O[C@@H](n4cnc5c(N)ncnc54)[C@H](O)[C@@H]3O)[C@@H](O)[C@H]2O)C=CC1 [NADH]
- binding affinity [4]: there is no difference between WT and E196A in NAD binding affinity
- binding affinity [5]: we measured the binding affinity of wild type (WT) and E196A for NADH and NADPH
